From patent publication US12084521B2, “TLR9 inhibitors to suppress inflammatory response to pathogens” (University Of Maryland, Baltimore, priority 2018, dated 2024) come the findings set out here.

Data set [1] relates to TLR9 signaling. Description: ODN 1668-induced cytokine mRNA expression in BMDM (quantitative real time PCR). The data set is classed as cell-based, mouse. The protocol:
(§1) The cDNA obtained was amplified with gene-specific primers for mouse HPRT, TNFα, IL-10, IL-12-p40, or IL-6 and Fast SYBR Green™ master mix (Applied Biosystemsm) as previously described.
Mouse BMDMs were incubated in the presence of a 10, 20 or 40 μM decoy peptide for 30 minutes prior to stimulation with ODN 1668 (1 μM). […] Data represent the means±SEM of at least three independent experiments. The statistical significance of changes in cytokine mRNA was determined by a one-way ANOVA test; *p<0.001. Peptides 9R3 and 9R34 have overlapping sequences (see Table 1).
To investigate inhibition of TLR9 signaling by 9R34 analogues, the following work was performed. Mouse BMDMs were incubated in the presence of a 10, 20 or 40 μM decoy peptide for 30 minutes prior to stimulation with ODN 1668 (1 μM). Cytokine mRNA expression was measured 1 hour after ODN 1668 challenge and normalized to the expression of HPRT. See also Table 1. Data represent means±SEM of at least three independent experiments.
Background: Real-time PCR tracks product formation cycle by cycle.

Another data set concerns TLR7 signaling. Description: TNFα mRNA in BMDM stimulated with R848. Type of data set: cell-based, mouse. To be noted: peptide 40 μM; R848 2.85 μM; 1 h. The protocol:
as §1
(§2) CPDPs 9R34 and 9R11 were examined for inhibition of TLR1/2, TLR4, and TLR7 signaling. BMDMs were stimulated with Pam3C, E. coli LPS, or R848 and TNFαmRNA was measured 1 hour after stimulation. Mouse BMDM were treated with 40 μM of the indicated peptides for 30 minutes prior to stimulation with ODN 1668 (1 μM), E. coli LPS (0.1 μg/mL), R848 (2.85 μM), or P3C (0.33 μM). R848 and P3C were used to specifically activate TLR7 and TLR2 signaling, respectively. TNFαmRNA expression was measured 1 h after ODN 1668 challenge and normalized to the expression of HPRT. See results in FIG. 8A, FIG. 8B, and FIG. 8C. […] The statistical significance of changes was determined by a one-way ANOVA test; *p<0.01.

Data set [2] concerns TLR9 signaling. In words: ODN 1668-induced cytokine secretion in BMDM supernatants (ELISA). Type of data set: cell-based, mouse. The following applies: 5 hour supernatants, ODN 1668 1 μM. The protocol:
(§3) Mouse TNFα and IL-12-p40 concentrations were measured in supernatants using ELISA kits from Biolegend™, Inc.
BMDMs were incubated in the presence of a decoy peptide for 30 minutes prior to stimulation with ODN 1668 (1 μM). The statistical significance of changes in cytokine levels was determined by the one-way ANOVA test; *p<0.01.

A further data set concerns myDDosome. The following applies: BMDM pretreated with CPDP; MyD88 IP, IRAK4 blot. The protocol:
Four million BMDMs per well were plated in 6-well plates and treated with CPDP for 30 minutes prior to stimulation with ODN 1668 for 90 minutes. Cells were lysed in 600 p L of buffer containing 20 mM HEPES (pH 7.4), 150 mM NaCl, 10 mM NaF, 2 mM Na3VO4, 1 mM EDTA, 1 mM EGTA, 0.5% Triton X-100, 0.1 mM DTT, and protease inhibitor cocktail (Roche™). Cell extracts were incubated overnight with 1 μg of anti-mouse MyD88 antibody (AF3109) (R&D Systems™, followed by a 4-hour incubation with 20 μL protein G Sepharose beads (ThermoFisherm Scientific). The beads were then washed 3 times with 500 μL of lysis buffer and boiled in 60 μL of Laemmli sample buffer (Bio-Rad™). Cell extracts were electrophoresed on 10% acrylamide gel by SDS-PAGE and transferred to PVDF membrane (Bio-Rad™). Rabbit anti-MyD88 IgG was purchased from Cell Signaling™. Mouse anti-IRAK4 IgG was obtained from Abcam™. Alkaline phosphatase-conjugated secondary antibodies against mouse and rabbit IgG were purchased from Cell Signaling™. The stabilized substrate for alkaline phosphatase was from Promega™.
TLR stimulation causes formation of myDDosome, a signaling complex composed through interactions of IRAK and MyD88 death domains. To test if peptides inhibit myDDosome formation, MyD88 was immunoprecipitated from lysates of ODN-stimulated BMDM and the precipitates analyzed for IRAK4 presence. BMDM were lysed and lysates immunoprecipitated with anti-MyD88 Ab and immune complexes assessed with anti-IRAK4 Ab 3 hours after cell treatment with ODN 1668.

Data set [3] can be described thus: Stability and solubility of peptide solutions.
Another data set concerns TLR1/2 signaling. Description: TNFα mRNA in BMDM stimulated with Pam3C. Type of data set: cell-based, mouse. To be noted: peptide 40 μM; P3C 0.33 μM; 1 h. The protocol:
as §1, §2

Data set [4] relates to TLR9 signaling. In words: TNFα mRNA in BMDM at varying ODN 1668 concentration, comparison with INH-18. The data set is classed as cell-based, mouse. The following applies: inhibitor 30 min before varying ODN 1668, 1 hour. The protocol:
To investigate inhibition of TLR9 signaling by 9R34 further, the following work was conducted. Mouse BMDMs were treated with the effective dose of either INH-18 (an ODN-based, competitive inhibitor of TLR9, commercially available through Invivogen™) or 9R34, 30 minutes prior to stimulation with varying concentration of ODN 1668. TNFα mRNA expression was measured 1 hour after ODN 1668 challenge and normalized to the expression of HPRT.

The test system of another data set is TLR9-induced lethality. Description: Survival of D-Gal pretreated mice after ODN 1668. Type of data set: in vivo, C57Bl/6J mice. To be noted: ODN 1668 lower dose 3.93 nmol/mouse; peptide 200 nmol/mouse i.p. The protocol: Systemic cytokine levels were measured in plasma samples obtained 1, 3, and 5 hours after intraperitoneal (i.p.) administration of 7.86 nmol (50 μg) of ODN 1668 or 67 nmol of Pam3C per mouse, using ELISA kits from Biolegend™ Inc. CPDP were dissolved in PBS and administered i.p. at the dose of 200 nmol per mouse 1 hour before administration of a TLR agonist. For survival experiments, mice were sensitized to TLR9 agonists by i.p. injection of 20 mg of D-Gal 30 minutes before administration of peptides or PBS. ODN 1668 was used at the doses of 3.93 or 7.86 nmol/mouse (25 or 50 μg/mouse) 1.5 hours after D-Gal. Animal survival was monitored for 50 hours. All agents were administered i.p. in 500 μL volume of PBS. Animals had free access to food and water during the observation period. All animal experiments were conducted in accordance with the national guidelines for the care and use of laboratory animals under a protocol that was approved by the UMB IACUC.
With the exception for LPS, administration of a purified TLR agonist is not lethal to mice. Mice, however, can be sensitized to TLR agonists by pretreatment with D-galactosamine (D-Gal). Survival of C57Bl/6J mice pretreated with D-galactosamine and challenged with different doses of ODN 1668 was tested. Mice were first administered with D-Gal intraperitoneally at the dose of 20 mg/mouse. Thirty minutes later mice were mock-treated with PBS or treated with a CPDP at the dose 200 nmol/mouse. ODN 1668 was administered 1 hour after peptide treatment at the dose of 3.93 or 7.86 nmol/mouse.

The test system of the next data set is TLR4 signaling. Description: LPS-induced TNFα secretion in BMDM (ELISA). The data set is classed as cell-based, mouse. The following applies: peptide 20 or 40 μM; E. coli LPS 0.1 μg/mL; 5 hour BMDM supernatants. The protocol:
as §3
BMDM were treated with 20 or 40 μM of 9R34 for 30 minutes prior to stimulation with E. coli LPS (0.1 μg/mL). TNFαconcentration in supernatants was evaluated by ELISA 5 hours after cell stimulation. See results in FIG. 9. Data represent means±SEM of three independent experiments.
Background: An ELISA detects its analyte on a solid surface through an enzyme-linked reagent.

[5] abbreviates: BMDM, peptide 10, 20 or 40 μM 30 min before ODN 1668 (1 μM), 1 hour, normalized to HPRT.

Entries after “also recorded” stand apart in the source; their conditions may differ. No end group written: not given here.

On to “GRWALRLCLEERD (also: antennapedia vector attached) [Peptide 9R34, tested as CPDP with antennapedia vector]”, for which the “TNFα mRNA expression” value in the data set on TLR9 signaling [1] (BMDM, peptide 10, 20 or 40 μM 30 min before ODN 1668 (1 μM), 1 hour after stimulation, normalized to HPRT) is reported as “significantly suppressed”. Also, in the data set with TLR9 signaling [1] (setting [5]), the “IL-10 mRNA expression” value is reported as “significantly suppressed” and the “IL-12-p40 mRNA expression” value is recorded as “significantly suppressed”. Besides, in the data set with TLR9 signaling [1] (BMDM, peptide 10, 20 or 40 μM, ODN 1668 1 μM), the “inhibition of TLR9 signaling (ODN 1668-induced cytokine mRNA, overall)” value is given as “most potent inhibitor; also recorded: inhibit TLR9 signaling; also recorded: inhibited TLR9 signaling more potently than 9R3”. For the same sequence, in the data set with TLR9 signaling [1] (peptide 10 or 20 μM), the “expression of all tested cytokines at lower peptide concentrations” value is listed as “inhibited expression of all tested cytokines”. Besides, the “signaling induced by TLR7 agonist (TNFα mRNA)” value with TLR7 signaling is listed as “did not inhibit”. Besides, in the data set with TLR9 signaling [2] (peptide 20 μM), the “secretion of IL-12-p40” value was “also effective”. In the data set on TLR9 signaling [2] (peptide 40 μM), the “production/secretion of TNFα” value is listed as “decreased the production of TNFα” and the “secretion of IL-12-p40” value was “reduced secretion”. Besides, in the data set on myDDosome, the “ODN 1668-induced myDDosome formation” value is “prevented ODN 1668-induced myDDosome formation”. In [3], the “stability of millimolar stock solutions” value is reported as “unstable” and the “stability of peptide solutions in the presence of high protein concentrations” value was “also unstable”. The “signaling induced by TLR1/2 agonist (TNFα mRNA)” value in the data set with TLR1/2 signaling is on record as “did not inhibit”. Also, the “TNFα/HPRT mRNA expression ratio with increased concentrations of agonistic ODN” value in the data set on TLR9 signaling [4] was “efficient inhibition in a wider range of agonist concentrations”. For the same sequence, in the data set on TLR9-induced lethality, the “protection of D-Gal pretreated mice (survival)” value is on record as “full protection”. Moreover, the “LPS-induced TNFα secretion” value with TLR4 signaling was “did not reduce”.
